# Assay results from patent publication US20110117055A1, “Methods of Treating Hepatitis C Virus with Oxoacetamide Compounds” (priority 2009, published 2011).
# “Also recorded” adds a separate entry of the source.
# What was measured:
# [1] = tested on: HCV2aCh (E2:G451R) mutant virus; test: E2:G451R mutant virus, Taqman assay for viral RNA copies; type: cell-based, HCV genotype 2a; conditions: 0-500 nM; about 27.5 hours after virus exposure
# Method: Two 24-well plates were seeded with 4×10^4 cells/well. The following day, cell culture supernatant was aspirated and cells were exposed to HCV2aCh wild type (black bars) and HCV2aCh (E2:G451R) mutant (blue bars), Approximately 250 μl of cell culture virus was added to each well (˜1×10^4 TCID/well or moi ˜0.25). Immediately after the addition of virus to the well, 2.5 μl of 100× concentration of compound was added to each well—and mixed multiple times with a 100 ul pipet tip—to achieve final compound dilutions: 0 nM, 5 nM, 15 nM, 50 nM, 150 nM, and 500 nM. Compound 5 was tested. Each plate was processed consecutively. After addition of virus and compound the plates were placed in the incubator for ˜3.5 hours (37° C., 5% CO2). Following incubation, the supernatant was replaced with fresh media (˜1 ml/well) and plates were returned to incubator. Twenty-four hours later (˜27.5 hours following virus exposure to the cells), cells were washed once with 1 ml of PBS and then the cells were processed for Taqman analysis.
# [2] = tested on: HCV genotype 1b subgenomic replicon; test: HCV replicon assay (HCV1b replicon cells, NS5A ELISA); type: cell-based; conditions: 3 days
# Method: Alternatively, Hut1b cells (Huh7 cells stably replicating HCV genotype 1b subgenomic replicon) were treated with serial dilutions of the test compound for 72 hours. Replication efficiency was monitored by ELISA assay using anti-HCV NS5A monoclonal antibody (Virogen).
# Increasing amounts of compound were inoculated onto HCV1b replicon cells and incubated for 3 days. Following incubation, HCV replication was monitored with NS5A protein expression by ELISA.
# Jc1-luc virus = test: Luciferase compound activity assay, Jc1-luc virus in Huh7.5.1 cells; type: cell-based, HCV genotype-2a; conditions: Hepatitis C virus, Huh-7.5.1
# Method: Cell culture. Human hepatoma Huh-7.5.1 cells or Huh7 cells were grown at 37° C. and 5% CO2 in Dulbecco's modification of Eagle's medium supplemented with 2 mM L-glutamine, 1 mM Sodium pyruvate, 1× Non-essential amino acids mix, 100 units/ml penicillin, 100 μg/ml streptomycin, and 10% fetal bovine serum.
# Virus plasmids. The chimeric full-length construct pFL-JC1, a GT2a/2a chimera consisting of structural genes from the J6CF isolate and non-structural genes from the JFH1 isolate, has been described previously. See Backes et al., J. Virol. 2010, 84:5775-89; Schaller et al., J. Virol., 2007, 81:4591-603; Koutsoudakis et al., J. Virol. 2006, 80:5308-20; Pietschmann et al., Proc. Natl. Acad. Sci., 2006, 103:7408-13. The firefly luciferase gene has been inserted to pFL-Jc1 to develop a plamid pFL-Jc1-luc for use as a reporter of viral replication. See Amako et al., J. Virol. 2009, 83:9237-46. Specifically, the pFL-JC1-luc construct can be utilized to develop an infectious HCV cell culture system to test novel HCV inhibitors, including entry inhibitors, in vitro using luciferase expression.
# Preparation of infectious HCV. Jc1-luc or HCV2a/2aChRluc RNA was in vitro transcribed using T7 RiboMAX™ Express Large Scale RNA Production System (Promega). After RNA clean up (Qiagen RNeasy Mini kit), transfection was performed as previously described.
# 400 microliters of a Huh-7.5.1 or Huh7 cell suspension (10^7 cells/ml) was placed in a 0.4-cm cuvette with 10 μg of Jc1-luc or HCV2a/2aChRluc RNA and electroporated (Bio-Rad Gene Pulser System) using a single square wave at 260 V and 25 ms pulse length. The cells were plated in 15-cm tissue culture dishes (Corning) and supernatant was harvested and concentrated using a centrifugal filter (Amicon 100K, Millipore).
# Luciferase compound activity assay. Cell culture and luciferase compound assays were performed as previously described. See Wyles et al., J. Virol. 2007, 81:3005-8; Wyles et al., Antimicrob Agents Chemother. 2009, 53:2660-2; Grünberger et al., J. Infect. Dis. 2008, 197:42-5; Wyles et al., Antimicrob Agents Chemother, 2008, 52:1862-4. Briefly, Huh7.5.1 cells were seeded into 96-well plates at a density of 10,000 cells per well in 100 μl medium. After incubating overnight for attachment, Jc1-luc virus at an MOI 0.01 was added to wells with or without compounds at the specified concentrations. All conditions were run in triplicate. After 24 hours, medium was aspirated and replaced with 100 μl of complete medium containing an identical concentration of compound(s) followed by additional 48 hour incubation. The luciferase assay (Bright-Glo; Promega) was carried out according to the manufacturer's instructions. Luciferase activity was determined using a microplate luminometer (Veritas microplate luminometer; Turner Biosystems). […]
# [3] = tested on: Bovine viral diarrhea virus (BVDV); test: BVDV plaque-forming assay in MDBK cells; type: cell-based; conditions: even at 1 μM
# Method: Bovine viral diarrhea virus (BVDV) is a closely related virus to HCV, belonging to the same Family, Flaviviridae. To validate the specificity of antiviral activity, BVDV infection was done with MDBK cells in the presence of compounds provided herein. MDBK cells (70 to 80% confluent) were infected with a diluted virus. Following 1 h of adsorption at 37° C., cells were washed once with DMEM, overlaid with 1.5% low-melting-point (LMP) agarose (Gibco-BRL) in MEM containing 5% HS, and incubated at 37° C. To assay for plaque-forming virus, after 3 days monolayers were fixed with 3.7% formaldehyde for 2 h at room temperature, the agarose plugs were removed, and the monolayers were stained with crystal violet.
# HCV1a/2a chimeric virus = test: HCV entry assay with HCV1a/2a chimeric virus; type: cell-based, HCV genotype 1a; conditions: compared with HCV2a chimeric virus
# Excerpt: Since HCV genotype 1 is the most prevalent genotype among the variants of HCV, we constructed an HCV1a/2a chimeric infectious clone with two cell-culture adaptive mutations introduced. Sequences for the structural proteins (including C, E1, and E2), p7, and NS2 were derived from HCV genotype 1a H77 strain. The rest of nonstructural proteins (NS3 to NS5B) and 3′ NTR were derived from HCV genotype 2a JFH strain. 5′NTR was originated from HCV2aJ6 (FIG. 7). […] Therefore, both HCV1a/2aCh virus and HCV1a/2aChLuc virus with Y361H and Q1251L mutations were successively produced in Huh7 cells and used for HCV entry assay.
# SR-B1 pathway = conditions: human subjects; cited from earlier work
# [4] = tested on: HCV1a chimeric virus and 2a chimeric virus; test: Combination of viral entry inhibitor with ribavirin; type: cell-based, HCV; conditions: ribavirin 15 μM
# Method: Varying amounts of each compound were coincubated with a high concentration of ribavirin (15 μM).
smiles,measurement,setting,value
"COc1c(NC(=O)C(=O)c2ccc(OCCN3CCOCC3)c3ccccc23)cc(C(C)(C)C)cc1NS(C)(=O)=O [Compound 5, N-(5-tert-butyl-2-methoxy-3-(methylsulfonamido)phenyl)-2-(4-(2-morpholinoethoxy)naphthalen-1-yl)-2-oxoacetamide]","sensitivity of E2 mutant virus relative to wild-type virus, Taqman assay for viral RNA copies",[1],greater resistance
same,effect on HCV replication (NS5A protein expression by ELISA),[2],did not measurably inhibit; also recorded: no measurable effect
same,EC50,Jc1-luc virus,20.2 ± 1.37 nM
same,inhibitory effect on BVDV infection,[3],No significant inhibitory effect
same,inhibition of HCV1a chimeric virus,HCV1a/2a chimeric virus,inhibited
same,HDL levels,SR-B1 pathway,raised HDL levels
same,effect of combination with ribavirin,[4],no antagonistic effect
